Reference: patent US11026944B2, “Compositions and methods for treating insomnia” (Eisai R&D Management Co., Ltd., priority 2014, dated 2021)
Where two headings read alike, the source gives them in different places.

How the values were obtained:
[1] = 001 Study Part B: plasma PK of compound A; format: in vivo, human; conditions: subjects with primary insomnia, single evening dose
Protocol: For subjects in Part B, blood samples for measurements of plasma concentrations of compound A were obtained by direct venipuncture on Day 1 predose and at 0.5, 9, 12, 24, 36, 60, 84, 108, 156, and 228 hours postdose.
Plasma concentrations of compound A were measured using a validated liquid chromatography-mass spectrometry/mass spectrometry (LC-MS/MS) assay.

[2] = Crossover study of relative bioavailability of tablet versus capsule (005 Study): plasma PK; format: in vivo, human; conditions: for Tmax / concentration at 8 h / AUC(0-t) / AUC(0-inf) / Cmax / half-life: human, plasma; for concentration at 8 h: plasma at 8 h, read-out: C8 Mean(SD); for AUC(0-inf): read-out: AUC(0-inf) Mean(SD); for Cmax: read-out: Cmax Mean(SD); for half-life: read-out: t1/2 Mean(SD) (converted)
Protocol: Single-center, open-label, randomized crossover study was conducted to evaluate, in healthy adult subjects, the bioavailability of single solid oral doses of compound A in tablet formulation relative to single oral doses of compound A in capsule formulation at 2.5, 10, and 25 mg. Another objective of the study was to evaluate the safety and tolerability of tablet formulations of compound A at 2.5, 10, and 25 mg in healthy adult subjects. Approximately 36 subjects were randomly assigned to one of three cohorts (approximately 12 subjects per cohort) and received both a single dose of compound A as a capsule formulation and a single dose of compound A as a tablet formulation, in random sequence, in a 1:1 ratio. The doses were 2.5 mg, 10 mg, and 25 mg.
The study had two phases: Prerandomization and Randomization. The Prerandomization Phase lasted for up to 21 days and included a Screening Period and Baseline Period A, during which eligibility was established and baseline assessments before dosing of the first formulation occurred. The Randomization Phase consisted of two Treatment Periods (A and B), separated by Baseline Period B. On the first day of Treatment Period A, subjects received a single oral dose of the first formulation. After the first formulation dose, pharmacokinetic (PK) and safety assessments were obtained throughout Treatment Period A, and subjects completed a 20-day washout. Before dosing of the second formulation, subjects completed Baseline Period B assessments. Subjects then proceeded to Treatment Period B and received a single oral dose of the second formulation. Pharmacokinetic and safety assessments were obtained throughout Treatment Period B.
Blood samples for the determination of plasma concentrations of compound A were collected at the following times: Treatment Period A (Day 1 to Day 15): before and after dosing at 0.5 (30 minutes), 1, 1.5, 2, 3, 4, 5, 6, 8, 12, 24, 48, 72, 120, 168, 240, and 336 hours; Treatment Period B (Day 22 to Day 36): before and after dosing at 0.5 (30 minutes), 1, 1.5, 2, 3, 4, 5, 6, 8, 12, 24, 48, 72, 120, 168, 240, and 336 hours.
Plasma concentrations of compound A were measured using a validated liquid chromatography-tandem mass spectrometry (LC-MS/MS) assay.
Noncompartmental methods were used to calculate the following plasma PK parameters for compound A: area under the plasma concentration-time curve from time zero to 8 hours after dosing (AUC(0-8)), area under the plasma concentration-time curve from time zero to 72 hours after dosing (AUC(0-72)), area under the plasma concentration-time curve from time zero to time of the last quantifiable concentration (AUC(0-t)), area under the plasma concentration-time curve from time zero extrapolated to time infinity (AUC(0-inf)), maximum observed plasma drug concentration (Cmax), terminal elimination half-life (t1/2), absorption lag time (tlag), and time to reach the maximum (peak) plasma concentration after drug administration (tmax). The primary PK parameters were AUC(0-inf) and Cmax. The individual PK parameters of compound A were presented in the data listings by formulation (tablet or capsule) and dose (2.5, 10, or 25 mg). The PK parameters except tmax and tlag were summarized by formulation and dose using descriptive statistics: number of subjects, mean, SD, coefficient of variation, geometric mean, median, minimum, and maximum. The parameters tmax and tlag were summarized by formulation and dose using the following descriptive statistics: median, minimum, maximum, and the 90% confidence interval (CI) of the median point estimate. The natural log (In)-transformed PK parameters for compound A (AUC(0-inf), Cmax, AUC(0-8), AUC(0-72), and AUC(0-t)) were compared separately by dose with a mixed-effects model with sequence, treatment period, and formulation as fixed effects and subjects nested within sequence as a random effect. […]

[3] = across all dose levels (2.5, 10, 25 mg)
[4] = po, 2.5 mg, single oral 2.5 mg Capsule, healthy adults
[5] = po, 2.5 mg, single oral 2.5 mg Tablet, healthy adults
[6] = po, 10 mg, single oral 10 mg Capsule, healthy adults
[7] = po, 10 mg, single oral 10 mg Tablet, healthy adults
[8] = po, 25 mg, single oral 25 mg Capsule, healthy adults
[9] = po, 25 mg, single oral 25 mg Tablet, healthy adults

In the case of `Cc1ncc(OC[C@@]2(c3cccc(F)c3)C[C@H]2C(=O)Nc2ccc(F)cn2)c(C)n1` [Compound A, (1R,2 S)-2-(((2,4-dimethylpyrimidin-5-yl)oxy)methyl)-2-(3-fluorophenyl)-N-(5-fluoropyridin-2-yl) cyclopropanecarboxamide], the “concentration-time profiles in Part B compared with Part A” value [1] was “approximately similar to their corresponding dose groups in Part A”, the “Differences between formulations (tablet vs capsule) in AUC(0-8), AUC(0-72), AUC(0-t), AUC(0-inf)” value [2, 3] was “less than 13%” and the “Differences between tablet and capsule formulations in Cmax” value [2, 3] was “less than 16%”. For the same compound, the absorption lag ([2]; either formulation, any dose level) was “no observed absorption lag”, the Tmax ([2]; oral, tablet and capsule, across all dose levels, read-out: median tmax) was 1 to 1.5 h and the concentration at 8 h ([2]; po, 2.5 mg, single oral 2.5 mg Capsule) was 1.84 ng/mL. The concentration at 8 h ([2]; po, 2.5 mg, single oral 2.5 mg Tablet) was 1.75 ng/mL, the AUC(0-t) ([2]; po, 2.5 mg, single oral 2.5 mg Capsule, healthy adults, read-out: AUC(0-8) Mean(SD)) was 45.5 ng·h/mL and the AUC(0-t) ([2]; po, 2.5 mg, single oral 2.5 mg Capsule, healthy adults, read-out: AUC(0-72) Mean(SD)) was 85.1 ng·h/mL. It also gave an AUC(0-inf) [2, 4] of 103 ng·h/mL, an AUC(0-t) ([2]; po, 2.5 mg, single oral 2.5 mg Capsule, healthy adults, read-out: AUC(0-t) Mean(SD)) of 94.9 ng·h/mL and a Cmax [2, 4] of 15.9 ng/mL. It also gave a half-life [2, 4] of 36.8 h, a Tmax ([2]; po, 2.5 mg, single oral 2.5 mg Capsule, healthy adults, read-out: tmax (median)) of 1 h and an AUC(0-t) ([2]; po, 2.5 mg, single oral 2.5 mg Tablet, healthy adults, read-out: AUC(0-8) Mean(SD)) of 47.1 ng·h/mL. It also gave an AUC(0-t) ([2]; po, 2.5 mg, single oral 2.5 mg Tablet, healthy adults, read-out: AUC(0-72) Mean(SD)) of 84.3 ng·h/mL, an AUC(0-inf) [2, 5] of 101 ng·h/mL and an AUC(0-t) ([2]; po, 2.5 mg, single oral 2.5 mg Tablet, healthy adults, read-out: AUC(0-t) Mean(SD)) of 93.2 ng·h/mL. The Cmax [2, 5] was 18 ng/mL, the half-life [2, 5] was 35.1 h and the Tmax ([2]; po, 2.5 mg, single oral 2.5 mg Tablet, healthy adults, read-out: tmax (median)) was 1 h. It also gave a concentration at 8 h ([2]; po, 10 mg, single oral 10 mg Capsule) of 8.9 ng/mL, a concentration at 8 h ([2]; po, 10 mg, single oral 10 mg Tablet) of 7.44 ng/mL and an AUC(0-t) ([2]; po, 10 mg, single oral 10 mg Capsule, healthy adults, read-out: AUC(0-8) Mean(SD)) of 164 ng·h/mL. For the same compound, the AUC(0-t) ([2]; po, 10 mg, single oral 10 mg Capsule, healthy adults, read-out: AUC(0-72) Mean(SD)) was 372 ng·h/mL, the AUC(0-inf) [2, 6] was 531 ng·h/mL and the AUC(0-t) ([2]; po, 10 mg, single oral 10 mg Capsule, healthy adults, read-out: AUC(0-t) Mean(SD)) was 511 ng·h/mL. For the same compound, the Cmax [2, 6] was 49 ng/mL, the half-life [2, 6] was 57 h and the Tmax ([2]; po, 10 mg, single oral 10 mg Capsule, healthy adults, read-out: tmax (median)) was 1.5 h. For the same compound, the AUC(0-t) ([2]; po, 10 mg, single oral 10 mg Tablet, healthy adults, read-out: AUC(0-8) Mean(SD)) was 178 ng·h/mL, the AUC(0-t) ([2]; po, 10 mg, single oral 10 mg Tablet, healthy adults, read-out: AUC(0-72) Mean(SD)) was 341 ng·h/mL and the AUC(0-inf) [2, 7] was 472 ng·h/mL. It also gave an AUC(0-t) ([2]; po, 10 mg, single oral 10 mg Tablet, healthy adults, read-out: AUC(0-t) Mean(SD)) of 455 ng·h/mL, a Cmax [2, 7] of 58.1 ng/mL and a half-life [2, 7] of 59.5 h. It also gave a Tmax ([2]; po, 10 mg, single oral 10 mg Tablet, healthy adults, read-out: tmax (median)) of 1 h, a concentration at 8 h ([2]; po, 25 mg, single oral 25 mg Capsule) of 19.9 ng/mL and a concentration at 8 h ([2]; po, 25 mg, single oral 25 mg Tablet) of 17.6 ng/mL. It also gave an AUC(0-t) ([2]; po, 25 mg, single oral 25 mg Capsule, healthy adults, read-out: AUC(0-8) Mean(SD)) of 358 ng·h/mL, an AUC(0-t) ([2]; po, 25 mg, single oral 25 mg Capsule, healthy adults, read-out: AUC(0-72) Mean(SD)) of 803 ng·h/mL and an AUC(0-inf) [2, 8] of 1110 ng·h/mL. It also gave an AUC(0-t) ([2]; po, 25 mg, single oral 25 mg Capsule, healthy adults, read-out: AUC(0-t) Mean(SD)) of 1080 ng·h/mL, a Cmax [2, 8] of 105 ng/mL and a half-life [2, 8] of 57.4 h. The Tmax ([2]; po, 25 mg, single oral 25 mg Capsule, healthy adults, read-out: tmax (median)) was 1.5 h, the AUC(0-t) ([2]; po, 25 mg, single oral 25 mg Tablet, healthy adults, read-out: AUC(0-8) Mean(SD)) was 386 ng·h/mL and the AUC(0-t) ([2]; po, 25 mg, single oral 25 mg Tablet, healthy adults, read-out: AUC(0-72) Mean(SD)) was 795 ng·h/mL. The AUC(0-inf) [2, 9] was 1100 ng·h/mL, the AUC(0-t) ([2]; po, 25 mg, single oral 25 mg Tablet, healthy adults, read-out: AUC(0-t) Mean(SD)) was 1070 ng·h/mL and the Cmax [2, 9] was 120 ng/mL. The half-life [2, 9] was 57.6 h and the Tmax ([2]; po, 25 mg, single oral 25 mg Tablet, healthy adults, read-out: tmax (median)) was 1 h.
